The source of these data is patent publication US20040242639A1, “Phospholipase C inhibitors for use in treating inflammatory disorders” (priority 2003, published 2004).

This assay has as its target T1, human PLC-β2 (Homo sapiens, UniProt Q00722).
T1 construct: made in house; host or cells: Sf9 cells (Spodoptera frugiperda), recombinant baculovirus
In words: PLC assay using FlashPlates (immobilized [3H]PIP2 hydrolysis). In kind it is biochemical. The settings on record: for inhibition at 10 µM: read-out: %; for pIC50: 96-well Phospholipid FlashPlates coated with [3H]PIP2, purified recombinant human PLC-β2 or cytosolic human PLC-β2. The source says: The hydrolysis of phosphatidylinositol-4,5-bisphosphate (PIP2) by a specific phospholipase C-β2 (PLC-β2) produces two intracellular messengers, diacylglycerol (DAG) and inositol 1,4,5-trisphosphate ([…]), which mediate the activation of protein kinase C and intracellular Ca^2+ release. A conventional organic solvent extraction method is widely used for PLC assays to isolate IP3 from the substrate […]. The conventional PLC-β2 assay, however is terminated by addition of acidified organic solvents and subsequent extraction and phase separation. […] Accordingly, a preferred method to test the compounds of the present invention, was developed utilizing a 96-well plate assay for PLC-β2 using immobilized radiolabeled substrate to quantitatively measure the reduction in the substrate level without a need for organic solvent extraction. The automated PLC-β2 assay described herein provides a convenient method for quantitative measurement of phospholipase C activities in a high throughput fashion.
Ninety-six well Phospholipid FlashPlates were coated with 0.2 mL of 50 mM Tris/HCl (pH 7.4), 0.01% Ac-BSA and 50,000 cpm of ^[3H]PIP2 (phosphatidylinositol-4,5-bisphosphate) at 4° C. for 72 h. The wells were aspirated and washed twice with PBS. The reactions were conducted directly in the wells in PLC reaction buffer containing 50 mM Tris/HCl (pH 7.2), 2.75 mM EDTA (pH 7.3), 80 mM KCl, 10 mM LiCl, 0.04% DOC and 2 mM CaCl2 in the absence or presence of the purified recombinant human PLC-β2 (prepared as described hereafter) or cytosolic human PLC-β2 from […]. Reduction of radioactivity was monitored by a Packard TopCount instrument (Packard Instrument Company, Conn., USA).
Suspension cultures of Sf9 cells were maintained in a spinner flask at 27° C. and stirred at 90 rpm. The cells were grown in Grace's media supplemented with 10% (v/v) fetal bovine serum, 3.3 g/l yeastolate, 3.3 g/l lactalbumin hydrosylate, glutamine (6.4 mM final), […] gentamicin, and 50 µg/ml kanamycin. Suspension of Sf9 cells (1.0×10^6 cells/ml) were infected with 5 pfu/cell of recombinant baculovirus encoding PLC-β2 and incubated at 27° C. for 72 h. The cells were collected by centrifugation (500×g, 7 min, 4° C.) and disrupted by hypotonic lysis buffer containing 20 mM Tris/HCl, pH 7.4, 5 mM MgCl2, 2 mM EGTA, 200 μM PMSF, 200 μM benzamidine and 1 μM pepstatin A. The lysate was sonicated on ice and the nuclei and unbroken cells removed by centrifugation (500×g, 5 min, 4° C.). The supernatant was recovered and clarified by centrifugation (34,000 rpm, 60 min, 4° C.). The supernatant was used as a crude cytosolic fraction (Paterson, A., Boyer, J. L., Watts, V. J., Morris, A. J., Price, E. M., Harden, T. K. (1995) Concentration of enzyme-dependent activation of PLC β1 and PLC β2 by Gα11 and βγ subunits. Cellular Signalling 7, 709-720).
Crude cytosol prepared from Sf9 cells expressing PLC-β2 was purified initially by chromatography on a 10 ml column of Q-Sepharose FF, equilibrated in buffer A (25 mM HEPES, pH 7.2,2 mM DTT, 2mM EDTA, 2 mM EGTA, 200 μM PMSF, 200 μM benzamidine, 1 μM pepstatin A containing 10 mM NaCl). […]

Structures are written as SMILES. pIC50: −log10 of the molar value.

T1 sequence (Q00722 whole entry): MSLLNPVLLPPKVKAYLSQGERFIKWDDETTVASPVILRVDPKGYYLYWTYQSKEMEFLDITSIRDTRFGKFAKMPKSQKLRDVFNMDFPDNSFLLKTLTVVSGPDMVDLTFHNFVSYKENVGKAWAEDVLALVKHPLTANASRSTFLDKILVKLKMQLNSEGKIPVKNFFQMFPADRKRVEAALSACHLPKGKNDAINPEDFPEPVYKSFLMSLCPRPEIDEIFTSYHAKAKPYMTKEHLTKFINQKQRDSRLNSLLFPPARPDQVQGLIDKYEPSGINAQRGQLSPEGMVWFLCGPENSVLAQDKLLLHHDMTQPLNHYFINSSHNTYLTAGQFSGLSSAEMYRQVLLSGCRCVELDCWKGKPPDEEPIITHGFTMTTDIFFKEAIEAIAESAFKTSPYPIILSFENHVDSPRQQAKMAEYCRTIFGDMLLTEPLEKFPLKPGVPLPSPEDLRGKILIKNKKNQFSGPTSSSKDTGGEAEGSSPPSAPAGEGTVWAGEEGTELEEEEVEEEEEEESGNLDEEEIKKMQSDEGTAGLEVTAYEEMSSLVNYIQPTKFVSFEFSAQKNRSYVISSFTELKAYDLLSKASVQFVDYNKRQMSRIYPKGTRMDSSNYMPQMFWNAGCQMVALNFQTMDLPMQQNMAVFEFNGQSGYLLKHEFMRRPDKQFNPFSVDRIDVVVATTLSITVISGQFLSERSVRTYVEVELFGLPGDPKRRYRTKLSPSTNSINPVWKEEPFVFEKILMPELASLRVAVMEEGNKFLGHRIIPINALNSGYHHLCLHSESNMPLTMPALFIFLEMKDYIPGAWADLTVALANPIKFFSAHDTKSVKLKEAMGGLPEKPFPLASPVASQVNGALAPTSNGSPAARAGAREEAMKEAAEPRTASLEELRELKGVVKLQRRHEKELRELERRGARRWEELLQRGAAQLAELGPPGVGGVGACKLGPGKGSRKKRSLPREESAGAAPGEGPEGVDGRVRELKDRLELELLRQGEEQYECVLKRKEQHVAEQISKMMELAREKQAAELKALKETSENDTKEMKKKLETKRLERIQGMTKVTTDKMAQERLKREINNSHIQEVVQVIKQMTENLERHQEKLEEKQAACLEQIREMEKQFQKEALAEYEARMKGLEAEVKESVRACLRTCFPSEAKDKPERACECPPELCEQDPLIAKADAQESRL

As for `NC(=O)c1ccc(N2CCC(C(c3ccccc3)c3ccccc3)CC2)c(NC(=O)Nc2ccccc2)c1` [Cpd 6, 4-[4-(diphenylmethyl)-1-piperidinyl]-3-[[(phenylamino)carbonyl]amino]-benzamide], the inhibition at 10 µM is 60.7%. As for `NC(=O)c1ccc(N2CCC(c3ccccc3)CC2)c(NC(=O)Nc2ccc3c(c2)OCO3)c1` [Cpd 3, 3-[[(1,3-benzodioxol-5-ylamino)carbonyl]amino]-4-(4-phenyl-1-piperidinyl)-benzamide], the negative logarithm of the IC50 (pIC50) was 4.96. As for `NC(=O)c1ccc(N2CCC(c3ccccc3)CC2)c(NC(=O)Nc2ccccc2)c1` [Cpd 2, 3-[[(phenylamino)carbonyl]amino]-4-(4-phenyl-1-piperidinyl)-benzamide], the pIC50 was 5.15. Still for that read-out and setting: in the case of `NC(=O)c1ccc(N2CCC(Cc3ccccc3)CC2)c(NC(=O)Nc2ccccc2)c1` [Cpd 1, 3-[[(phenylamino)carbonyl]amino]-4-[4-(phenylmethyl)-1-piperidinyl]-benzamide] it was 5.47. With `NC(=O)c1ccc(N2CCC(=C(c3ccccc3)c3ccccc3)CC2)c(NC(=O)Nc2ccccc2)c1` [Cpd 7, 4-[4-(diphenylmethylene)-1-piperidinyl]-3-[[(phenylamino)carbonyl]amino]-benzamide], the inhibition at 10 µM amounted to 49.8%.

As a reminder, the pIC50 is the IC50 on a negative log10 scale, so that one unit is a factor of ten.
